From patent publication US12139477B2, “Compounds, salts thereof and methods for treatment of diseases” (ACADIA PHARMACEUTICALS INC., priority 2017, dated 2024)

molecular target: 5HT2A (Homo sapiens, UniProt P28223); experiment: Receptor Selection and Amplification (R-SAT) functional assay; type: cell-based; parameters: expressed in transfected cells; host or cells: NIH3T3 cells, pSI mammalian expression vector; details: NIH3T3 cells; Ki from IC50 by Cheng and Prussoff
Source text: Receptor Selection and Amplification (R-SAT) Assays. […] The IC50 determined in the RSAT assay was converted into a Ki value using the method of Cheng and Prussoff, Biochem Pharmacol., 1973 Dec. 1; 22(23):3099-108. pKi is the negative of the log(Ki).

5HT2A, sequence (P28223 whole entry): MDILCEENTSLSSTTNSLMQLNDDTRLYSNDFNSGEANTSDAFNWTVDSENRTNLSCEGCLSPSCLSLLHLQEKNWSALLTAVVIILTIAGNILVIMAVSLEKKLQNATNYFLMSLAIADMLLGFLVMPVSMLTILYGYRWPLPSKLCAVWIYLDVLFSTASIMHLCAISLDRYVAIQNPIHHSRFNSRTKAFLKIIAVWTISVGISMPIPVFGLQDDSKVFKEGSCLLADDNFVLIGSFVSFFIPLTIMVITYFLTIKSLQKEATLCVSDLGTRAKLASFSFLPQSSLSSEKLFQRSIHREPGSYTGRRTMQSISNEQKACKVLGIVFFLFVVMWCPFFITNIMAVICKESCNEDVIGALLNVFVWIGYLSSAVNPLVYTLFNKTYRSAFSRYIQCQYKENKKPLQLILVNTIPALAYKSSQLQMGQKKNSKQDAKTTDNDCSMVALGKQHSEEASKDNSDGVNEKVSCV

Compound | 5-HT2a (pKi) (R-SAT)
CCCCOc1ccc(CNC(=O)N(Cc2ccc(F)cc2F)C2CCNCC2)cc1.CCCCOc1ccc(CNC(=O)N(Cc2ccc(F)cc2F)C2CCNCC2)cc1.O=C(O)C(O)C(O)C(=O)O [Example 123, 3-[(4-butoxyphenyl)methyl]-1-[(2,4-difluorophenyl)methyl]-1-(piperidin-4-yl)urea; Hemitartrate] | 7.8
COc1ccc(CNC(=O)N(Cc2ccc(F)cc2F)C2CCNCC2)cc1.COc1ccc(CNC(=O)N(Cc2ccc(F)cc2F)C2CCNCC2)cc1.O=C(O)C(O)C(O)C(=O)O [Example 126, 1-[(2,4-difluorophenyl)methyl]-3-[(4-methoxyphenyl)methyl]-1-(piperidin-4-yl)urea; Hemitartrate] | 8.1
CCOc1ccc(CNC(=O)N(Cc2ccc(F)cc2F)C2CCNCC2)cc1.CCOc1ccc(CNC(=O)N(Cc2ccc(F)cc2F)C2CCNCC2)cc1.O=C(O)C(O)C(O)C(=O)O [Example 127, 3-[(2,4-difluorophenyl)methyl]-1-[(4-ethoxyphenyl)methyl]-3-(piperidin-4-yl)urea; Hemitartrate] | 8.2

same assay, conditions: NIH3T3 cells; Ki from IC50 by Cheng and Prussoff; read-out: 5-HT2a (pKi) (R-SAT) (converted)

Compound | Ki
COc1ccc(CNC(=O)N(Cc2ccc(F)cc2F)C2CCN(C)CC2)cc1F [Example 118, 1-[(2,4-difluorophenyl)methyl]-3-[(3-fluoro-4-methoxyphenyl)methyl]-1-(1-methylpiperidin-4-yl)urea] | 10 nM
CN1CCC(N(Cc2ccc(F)cc2F)C(=O)NCc2ccc(O)cc2F)CC1 [Example 119, 1-[(2,4-difluorophenyl)methyl]-3-[(2-fluoro-4-hydroxyphenyl)methyl]-1-(1-methylpiperidin-4-yl)urea] | 63.1 nM
CN1CCC(N(Cc2ccc(F)cc2F)C(=O)NCc2ccc(Oc3ccccc3)cc2)CC1 [Example 120, 3-[(2,4-difluorophenyl)methyl]-3-(1-methylpiperidin-4-yl)-1-[(4-phenoxyphenyl)methyl]urea] | 7.94 nM
COc1ccc(CN(C(=O)NCc2ccc(OCC(C)C)cc2)C2CCN(C)CC2)c(C(F)(F)F)c1 [Example 121, 3-{[4-methoxy-2-(trifluoromethyl)phenyl]methyl}-3-(1-methylpiperidin-4-yl)-1-{[4-(2-methylpropoxy)phenyl]methyl}urea] | 126 nM
COc1ccc(CN(C(=O)NCc2ccc(OC(C)C)cc2)C2CCN(C)CC2)c(F)c1 [Example 122, 1-[(2-fluoro-4-methoxyphenyl)methyl]-1-(1-methylpiperidin-4-yl)-3-{[4-(propan-2-yloxy)phenyl]methyl}urea; Trifluoroacetic Acid] | 7.94 nM
CCCCOc1ccc(CNC(=O)N(Cc2ccc(F)cc2F)C2CCN(C)CC2)cc1 [Example 124, 3-[(4-butoxyphenyl)methyl]-1-[(2,4-difluorophenyl)methyl]-1-(1-methylpiperidin-4-yl)urea] | 10 nM
CN1CCC(N(Cc2ccc(F)cc2F)C(=O)NCc2ccc3c(c2)OCO3)CC1 [Example 128, 3-[(2H-1,3-benzodioxol-5-yl)methyl]-1-[(2,4-difluorophenyl)methyl]-1-(1-methylpiperidin-4-yl)urea] | 7.94 nM
CC(C)COc1ccc(CNC(=O)N(Cc2cccc(F)c2F)C2CCN(C)CC2)cc1 [Example 129, 1-[(2,3-difluorophenyl)methyl]-1-(1-methylpiperidin-4-yl)-3-{[4-(2-methylpropoxy)phenyl]methyl}urea; Trifluoroacetic Acid] | 50.1 nM
CC(C)Oc1ccc(CNC(=O)N(Cc2ccc(F)c(F)c2)C2CCN(C)CC2)cc1 [Example 130, 1-[(3,4-difluorophenyl)methyl]-1-(1-methylpiperidin-4-yl)-3-{[4-(propan-2-yloxy)phenyl]methyl}urea; Trifluoroacetic Acid] | 79.4 nM
O=C(O)C(F)(F)F.[2H]C([2H])([2H])N1CCC(N(Cc2ccc(F)cc2F)C(=O)NCc2ccc(OC(C)C)cc2)CC1 [Example 131, 1-[(2,4-difluorophenyl)methyl]-1-[1-(^2H3)methylpiperidin-4-yl]-3-{[4-(propan-2-yloxy)phenyl]methyl}urea; Trifluoroacetic Acid] | 0.631 nM
CC(C)Oc1ccc(CNC(=O)N(Cc2ccc(F)c(F)c2F)C2CCNCC2)cc1 [Example 132, 1-(piperidin-4-yl)-3-{[4-(propan-2-yloxy)phenyl]methyl}-1-[(2,3,4-trifluorophenyl)methyl]urea; Trifluoroacetic Acid] | 79.4 nM
CC(C)Oc1ccc(CNC(=O)N(Cc2ccc(Cl)cc2F)C2CCNCC2)cc1 [Example 133, 3-[(4-chloro-2-fluorophenyl)methyl]-3-(piperidin-4-yl)-1-{[4-(propan-2-yloxy)phenyl]methyl}urea; Trifluoroacetic Acid] | 5.01 nM
CC(C)COc1ccc(CNC(=O)N(Cc2ccc(Cl)cc2F)C2CCNCC2)cc1 [Example 134, 3-[(4-chloro-2-fluorophenyl)methyl]-1-{[4-(2-methylpropoxy)phenyl]methyl}-3-(piperidin-4-yl)urea; Trifluoroacetic Acid] | 3.98 nM
CC(C)Oc1ccc(CNC(=O)N(Cc2ccc(F)c(F)c2F)C2CCN(C)CC2)cc1 [Example 135, 1-(1-methylpiperidin-4-yl)-3-{[4-(propan-2-yloxy)phenyl]methyl}-1-[(2,3,4-trifluorophenyl)methyl]urea; Trifluoroacetic Acid] | 15.8 nM
COc1cc(F)c(CN(C(=O)NCc2ccc(OC(C)C)cc2)C2CCN(C)CC2)c(F)c1 [Example 136, 1-[(2,6-difluoro-4-methoxyphenyl)methyl]-1-(1-methylpiperidin-4-yl)-3-{[4-(propan-2-yloxy)phenyl]methyl}urea; Trifluoroacetic Acid] | 7.94 nM
CCCOc1ccc(CNC(=O)N(Cc2ccc(F)cc2F)C2CCN(C)CC2)cc1 [Example 140, 1-[(2,4-difluorophenyl)methyl]-1-(1-methylpiperidin-4-yl)-3-[(4-propoxyphenyl)methyl]urea] | 3.16 nM
COc1cc(CNC(=O)N(Cc2ccc(F)cc2F)C2CCN(C)CC2)ccc1F [Example 146, 1-[(2,4-difluorophenyl)methyl]-3-[(4-fluoro-3-methoxyphenyl)methyl]-1-(1-methylpiperidin-4-yl)urea; Trifluoroacetic Acid] | 5.01 nM
CCCCC(CC)COc1ccc(CNC(=O)N(Cc2ccc(F)cc2F)C2CCN(C)CC2)cc1 (centres unmarked) [Example 147, 1-[(2,4-difluorophenyl)methyl]-3-({4-[(2-ethylhexyl)oxy]phenyl}methyl)-1-(1-methylpiperidin-4-yl)urea; Trifluoroacetic Acid] | 3.16 nM
COc1cc(F)c(CNC(=O)N(Cc2ccc(F)cc2F)C2CCN(C)CC2)c(F)c1 [Example 150, 1-[(2,6-difluoro-4-methoxyphenyl)methyl]-3-[(2,4-difluorophenyl)methyl]-3-(1-methylpiperidin-4-yl)urea; Trifluoroacetic Acid] | 5.01 nM
O=C(O)C(F)(F)F.[2H]C1([2H])Oc2ccc(CNC(=O)N(Cc3ccc(F)cc3F)C3CCN(C)CC3)cc2C1([2H])[2H] [Example 159, 1-[(2,4-difluorophenyl)methyl]-3-{[2,3-dihydro(2,2,3,3-^2H4)-1-benzofuran-5-yl]methyl}-1-(1-methylpiperidin-4-yl)urea; Trifluoroacetic Acid] | 7.94 nM
